Values after ≈ are worked out from the molar mass of the structure shown. Starred links: 1 amine or outer side, 2 acyl side, 3 side chain; linkers in the order of their positions; H or OH if unused. Positions of bridges follow the written chain, without caps; N, C: chain ends. Non-standard residues stand in square brackets, D forms with d. Residues, ends and D or L forms follow the SMILES beside them. *: point of attachment. X2 = CC1CCC(C(=O)[*:2])N1[*:1]; NMeV = CN[CH](C(=O)O)C(C)C; X1 = Cc1ccc(C(=O)*)c(N)c1O; Sar = CNCC(=O)O
Key:
[1] = Body weight change in P388-bearing mice; details: QD × 3, ip
Description: (§1) BU-3292T components A and B were tested for in vitro cytotoxicity against murine and human tumor cells and for in vivo antitumor activity in mice. Actinomycin D was used as a reference compound in both in vitro and in vivo experiments. B16-F10 (murine melanoma) and Moser (human colorectal carcinoma) cells were grown to the logarithmic phase in enriched Eagle minimum essential medium (MEM) supplemented with fetal calf serum (FCS, 10%) and kanamycin (60 mcg/ml), harvested and inoculated into wells of a 96-well microtiter plate with test materials at the concentrations of 3.0×10^4 and 6.0×10^4 cells/ml, respectively. They were incubated at 37° C. in humidified atmosphere of 5% CO2 and 95% air for 72 hours. The cytotoxic activity was determined colorimetrically at 540 nm after staining viable cells with neutral red. […] Inhibitory effects of BU-3292T component A on macromolecule (DNA, RNA and protein) synthesis were determined in vitro. Cultured L1210 murine leukemia cells (5×10^5 cells/ml) were incubated with test materials at 37° C. for 15 minutes and then further incubated for 60 minutes after the addition of labelled precursor, ^3 H-thymidine, ^14 C-uridine or ^3 H-leucine, into the cultured mixtures. After washing with chilled 5% trichloroacetic acid solution, the radioactivity incorporated into the acid-insoluble fraction of the tumor cells was determined in a liquid scintillation counter. […] In vivo antitumor activities of BU-3292T components A and B were tested in tumor-bearing female CDF mice. After the intraperitoneal implantation of diluted ascitic fluid with 1.0 ×10^6 lymphocytic leukemia P388 cells into the mice, test compounds were administered intraperitoneally once a day on days 1, 2 and 3 (QD×3).

[2] = test system: aerobic gram-positive bacteria; assay: Antimicrobial activity, agar dilution, summary in words; format: cell-based; details: summary of Table 6
Description: (§2) The antimicrobial activity of BU-3292T A and B was determined against aerobic and anaerobic bacteria and fungi by a serial two-fold agar dilution method. BU-3292T A and B are active against aerobic gram-positive bacteria, and weakly active against anaerobic gram-negative bacteria and fungi.

[3] = test system: anaerobic gram-negative bacteria and fungi; assay: as above; format: cell-based; details: summary of Table 6
Description: as §2

gram-negative bacteria = assay: as above; format: cell-based; details: summary of Table 6
Description: as §2

[4] = test system: RNA synthesis in L1210 leukemia cells; assay: Inhibition of macromolecule synthesis, 14C-uridine incorporation; format: cell-based, murine
Description: as §1

[5] = test system: DNA synthesis in L1210 leukemia cells; assay: Inhibition of macromolecule synthesis, 3H-thymidine incorporation; format: cell-based, murine
Description: BU-3292T components A and B were tested for in vitro cytotoxicity against murine and human tumor cells and for in vivo antitumor activity in mice. Actinomycin D was used as a reference compound in both in vitro and in vivo experiments. B16-F10 (murine melanoma) and Moser (human colorectal carcinoma) cells were grown to the logarithmic phase in enriched Eagle minimum essential medium (MEM) supplemented with fetal calf serum (FCS, 10%) and kanamycin (60 mcg/ml), harvested and inoculated into wells of a 96-well microtiter plate with test materials at the concentrations of 3.0×10^4 and 6.0×10^4 cells/ml, respectively. They were incubated at 37° C. in humidified atmosphere of 5% CO2 and 95% air for 72 hours. The cytotoxic activity was determined colorimetrically at 540 nm after staining viable cells with neutral red. […] Inhibitory effects of BU-3292T component A on macromolecule (DNA, RNA and protein) synthesis were determined in vitro. […] After washing with chilled 5% trichloroacetic acid solution, the radioactivity incorporated into the acid-insoluble fraction of the tumor cells was determined in a liquid scintillation counter. […]

Solubility = format: physicochemical
Source text: BU-3292T A is isolated as a white amorphous powder, while BU-3292T B is an orange-red powder. […] The compounds give positive responses to iodine and Rydone-Smith reagents, but negative responses to Sakaguchi, ferric chloride, ninhydrin and anthrone reagents. […] The IR spectra of BU-3292T A and B are illustrated in FIGS. 1 and 2, respectively.

[6] = test system: Clostridium perfringens A9635; format: cell-based; details: GAM agar
[7] = test system: Protein synthesis in L1210 leukemia cells; assay: Inhibition of macromolecule synthesis, 3H-leucine incorporation; format: cell-based, murine
Description: as §1

[8] = test system: lymphocytic leukemia P388; assay: Antitumor activity against P388 leukemia (ip); format: in vivo, mice; details: for MST (Median survival time) / T/C: QD × 3, ip
Description: as §1

[9] = test system: Moser (human colorectal carcinoma) cells; assay: In vitro cytotoxicity, neutral red staining; format: cell-based; details: 72 hours
Description: as §1

[10] = test system: B16-F10 (murine melanoma) cells; assay: In vitro cytotoxicity, neutral red staining; format: cell-based
Description: as §1

Mucor spinosus IFO 5317 = assay: Antimicrobial activity, serial two-fold agar dilution method; format: cell-based
Description: as §2

[11] = test system: Clostridium difficile A21675; assay: as above; format: cell-based; details: GAM agar
Description: as §2

[12] = test system: Propionibacterium acnes A21933; assay: as above; format: cell-based; details: GAM agar
Description: as §2

[13] = test system: Propionibacterium anaerobius A21905; assay: as above; format: cell-based; details: GAM agar
Description: as §2

Micrococcus luteus 1001 = assay: as above; format: cell-based; details: Nutrient agar
Description: as §2

Proteus vulgalis A9436 = assay: as above; format: cell-based; details: Nutrient agar
Description: as §2

[14] = test system: Staphylococcus epidermidis D153; assay: as above; format: cell-based; details: Nutrient agar
Description: as §2

[15] = test system: Trichophyton mentagrophytes D155; assay: as above; format: cell-based; details: Sabouraud dextrose agar
Description: as §2

Escherichia coli NIHJ = assay: as above; format: cell-based; details: Nutrient agar
Description: as §2

[16] = test system: Aspergillus fumigatus IAM 2530; assay: as above; format: cell-based; details: Sabouraud dextrose agar
Description: as §2

[17] = test system: Streptococcus faecalis A9612; assay: as above; format: cell-based; details: Nutrient agar
Description: as §2

[18] = test system: Candida albicans IAM 4888; assay: as above; format: cell-based; details: Sabouraud dextrose agar
Description: as §2

[19] = test system: Staphylococcus aureus smith; assay: as above; format: cell-based; details: Nutrient agar
Description: as §2

[20] = test system: Staphylococcus aureus 209P; assay: as above; format: cell-based; details: Nutrient agar
Description: as §2

[21] = test system: Fusarium moniliforme A2284; assay: as above; format: cell-based; details: Sabouraud dextrose agar
Description: as §2

[22] = test system: Streptococcus pyogenes A20201; assay: as above; format: cell-based; details: Nutrient agar
Description: as §2

[23] = test system: Klebsiella pneumoniae D11; assay: as above; format: cell-based; details: Nutrient agar
Description: as §2

[24] = test system: Bacteroides fragilis A22693; assay: as above; format: cell-based; details: GAM agar
Description: as §2

[25] = test system: Bacillus subtilis PCI-219; assay: as above; format: cell-based; details: Nutrient agar
Description: as §2

[26] = test system: Cryptococcus neoformans IAM 4519; assay: as above; format: cell-based; details: Sabouraud dextrose agar
Description: as §2

[27] = test system: Pseudomonas aeruginosa A9930; assay: as above; format: cell-based; details: Nutrient agar
Description: as §2

Proteus mirabilis A9554 = assay: as above; format: cell-based; details: Nutrient agar
Description: as §2

Cc1ccc(C(=O)NC2C(=O)NC(C(C)C)C(=O)N3C(C)CCC3C(=O)N(C)CC(=O)N(C)C(C(C)C)C(=O)OC2C)c(N)c1O (stereo not shown) [BU-3292T A] (X1-TV[X2][Sar][NMeV]; ester 1-C; configuration not given here)
Body weight change on day 4 ([1]; 0.03 mg/kg/day): +1.3 g | Body weight change on day 4 ([1]; 0.1 mg/kg/day): +1.3 g | Body weight change on day 4 ([1]; 0.3 mg/kg/day): +1.3 g | Body weight change on day 4 ([1]; 1 mg/kg/day): +0.5 g | Body weight change on day 4 ([1]; 3 mg/kg/day): +0.3 g | Body weight change on day 4 ([1]; 10 mg/kg/day): -3.0 g | activity against aerobic gram-positive bacteria [2]: active | activity against anaerobic gram-negative bacteria and fungi [3]: weakly active | activity against gram-negative bacteria (gram-negative bacteria): inactive | inhibited RNA synthesis times more than DNA synthesis ([4]; L1210 cells, RNA versus DNA synthesis): approximately 300 times | IC50 RNA ([4]; L1210 leukemia cells, 14C-uridine): 0.23 µg/mL (≈ 0.357 µM) | IC50 DNA [5]: 80 µg/mL (≈ 124 µM) | solubility in dimethyl sulfoxide, dimethylformamide, methanol, ethyl acetate and chloroform (Solubility; dimethyl sulfoxide, dimethylformamide, methanol, ethyl acetate, chloroform): readily soluble | solubility in water and other organic solvents (Solubility; water and other organic solvents): insoluble | MIC [6]: 100 µg/mL (≈ 155 µM) | inhibitory effect on protein synthesis ([7]; L1210 cells, at 100 mcg/ml, the highest concentration tested): no inhibitory effect | IC50 Protein ([7]; L1210 leukemia cells, 3H-leucine): > 100 µg/mL | MST (Median survival time) ([8]; 0.03 mg/kg/day): 11.0 days | T/C ([8]; 0.03 mg/kg/day): 110% | MST (Median survival time) ([8]; 0.1 mg/kg/day): 11.0 days | T/C ([8]; 0.1 mg/kg/day): 110% | MST (Median survival time) ([8]; 0.3 mg/kg/day): 12.0 days | T/C ([8]; 0.3 mg/kg/day): 120% | MST (Median survival time) ([8]; 1 mg/kg/day): 13.0 days | T/C ([8]; 1 mg/kg/day): 130% | MST (Median survival time) ([8]; 3 mg/kg/day): 14.0 days | T/C ([8]; 3 mg/kg/day): 140% | MST (Median survival time) ([8]; 10 mg/kg/day): 16.0 days | T/C ([8]; 10 mg/kg/day): 160% | MST (Median survival time) ([8]; 30 mg/kg/day): Tox | T/C ([8]; 30 mg/kg/day): Tox | maximum T/C value ([8]; anti-P388 leukemic activity, QD×3, ip): 160% | IC50 [9]: 0.09 µg/mL (≈ 0.14 µM) | IC50 ([10]; B16-F10, 72 hours): 0.007 µg/mL (≈ 0.0109 µM) | times stronger against B16-F10 cells than against Moser cells ([10]; cytotoxic activity, B16-F10 versus Moser): approximately 10 times | MIC (Mucor spinosus IFO 5317; Mucor spinosus IFO 5317, Sabouraud dextrose agar): 12.5 µg/mL (≈ 19.4 µM) | MIC (Mucor spinosus IFO 5317; in vitro against Mucor spinosus IF05317): 12.5 µg/mL (≈ 19.4 µM) | MIC [11]: > 100 µg/mL | MIC [12]: 100 µg/mL (≈ 155 µM) | MIC [13]: 100 µg/mL (≈ 155 µM) | MIC (Micrococcus luteus 1001): 0.4 µg/mL (≈ 0.62 µM) | MIC (Proteus vulgalis A9436): > 100 µg/mL | MIC [14]: 1.6 µg/mL (≈ 2.48 µM) | MIC [15]: > 100 µg/mL | MIC (Escherichia coli NIHJ): > 100 µg/mL | MIC [16]: > 100 µg/mL | MIC [17]: 0.8 µg/mL (≈ 1.24 µM) | MIC [18]: > 100 µg/mL | MIC [19]: 1.6 µg/mL (≈ 2.48 µM) | MIC [20]: 1.6 µg/mL (≈ 2.48 µM) | MIC [21]: > 100 µg/mL | MIC [22]: 1.6 µg/mL (≈ 2.48 µM) | MIC [23]: > 100 µg/mL | MIC [24]: > 100 µg/mL | MIC [25]: 0.4 µg/mL (≈ 0.62 µM) | MIC [26]: 100 µg/mL (≈ 155 µM) | MIC [27]: > 100 µg/mL | MIC (Proteus mirabilis A9554): > 100 µg/mL

Reference: patent publication US5114920A, “BU-3292T antibiotics” (priority 1988, dated 1992)
